Common to all, as to type: in vivo
For assay [1], the system named is Phaedon cochleariae. Nature of the assay: Phaedon cochleariae spray test. The conditions noted are these: foliar, 168 h, Chinese cabbage leaf discs, larvae, after 7 days, read-out: efficacy. The protocol: Phaedon cochleariae—Spray Test
To produce a suitable preparation of active compound, 1 part by weight of active compound is dissolved using the specified parts by weight of solvent and made up with water containing an emulsifier concentration of 1000 ppm until the desired concentration is attained. To produce further test concentrations, the formulation is diluted with emulsifier-containing water.
After 7 days, the efficacy in % is determined. 100% means that all the beetle larvae have been killed; 0% means that no beetle larvae have been killed.

The subject of assay [2] is Myzus persicae. Nature of the assay: Myzus persicae spray test (Chinese cabbage leaf discs). The conditions noted are these: foliar, 120 h, 500 g/ha, after 5-6 days, read-out: efficacy. The method, boiled down:
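Formulated compound in acetone/dimethylformamide, diluted in water with 1000 ppm emulsifier, was sprayed onto Brassica pekinensis leaf discs carrying mixed-stage Myzus persicae. Percent mortality was read 5-6 days later (0% = no aphids killed, 100% = all killed).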

Assay [3] concerns Myzus persicae. Nature of the assay: Myzus persicae oral test. Particulars: 120 h, 20 ppm, oral uptake, after 5 days, read-out: efficacy. In outline: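 Aphids of mixed ages imbibe, through parafilm, compound solution (acetone stock, water-diluted) combined with sugar-supplemented IPL41 medium to 200 μl. Efficacy read at day 5 as percent killed, 0% meaning no deaths.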
Assay [4] deals with Meloidogyne incognita. Nature of the assay: Meloidogyne incognita test. Particulars: 336 h, lettuce, after 14 days, read-out: nematicidal efficacy (formation of galls). In outline: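 Gall formation on lettuce roots scored after 14 days: 0% means gall count equals untreated control, 100% means none. Sand vessels held the compound (acetone concentrate diluted in water), southern root-knot nematode egg/larvae suspension and lettuce seeds.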

For `O=C(NS(=O)(=O)c1ccc(Cl)cc1)c1nc(-c2ccccc2Cl)n(-c2ccccc2)c1Cl` [Example 105], in assay [1], the pest or weed control at 500 g/ha was 100%.

Consider `COc1ccc(Br)c(S(=O)(=O)NC(=O)c2cn(C)c(-c3c(F)cccc3F)n2)c1` [Example 143], for which the pest or weed control at 500 g/ha in assay [2] amounted to 90%; in assay [1], 100%. The pest or weed control at 20 ppm in assay [3] was 90%.

For `Cn1cc(C(=O)NS(=O)(=O)c2ccc(Cl)c(Cl)c2)nc1-c1ccccc1Cl` [Example 165], the pest or weed control at 500 g/ha in assay [2] came to 90%; in assay [1] it was 100%. In addition, in assay [3], the pest or weed control at 20 ppm was determined as 90%.

On to `Cc1ccccc1S(=O)(=O)NC(=O)c1nc(-c2c(F)cccc2F)n(C)c1C` [Example 196], for which the pest or weed control at 500 g/ha in assay [1] is 100%. In addition, the pest or weed control at 20 ppm in assay [3] was 100%.

With `Cc1ccccc1S(=O)(=O)NC(=O)c1nc(-c2ccccc2Cl)n(C)c1Cl` [Example 205], the pest or weed control at 20 ppm in assay [4] and in assay [3] was 100% in each case. In assay [1], the pest or weed control at 500 g/ha was 100%.

Consider `COc1ccc(Cl)c(S(=O)(=O)NC(=O)c2nc(-c3ccccc3Cl)n(C)c2Br)c1` [Example 222], for which the pest or weed control at 20 ppm in assay [4] is 100%. In addition, in assay [1], the pest or weed control at 500 g/ha was found to be 100%.

In the case of `Cc1cc(F)c(F)cc1S(=O)(=O)NC(=O)c1cn(C)c(-c2ccccc2Cl)n1` [Example 290], the pest or weed control at 500 g/ha in assay [2] and in assay [1] was 100% throughout. Further, the pest or weed control at 20 ppm in assay [3] was 100%.

For `COc1cc(S(=O)(=O)NC(=O)c2cc(C)n(-c3ncccc3Br)n2)c(C)cc1Br` [Example 300], the results for the pest or weed control at 500 g/ha in assay [2] and in assay [1] were 90% and 100%, respectively. Also, in assay [3], the pest or weed control at 20 ppm came to 100%.

For `Cc1ccc(F)cc1S(=O)(=O)NC(=O)c1cc(C)n(-c2ncccc2Br)n1` [Example 303], the figures for the pest or weed control at 500 g/ha in assay [2] and in assay [1] were 100% and 83%, respectively. Further, the pest or weed control at 20 ppm in assay [3] was 100%.

In the case of `Cc1cccc(Cl)c1S(=O)(=O)NC(=O)c1cc(C)n(-c2ncccc2Br)n1` [Example 304], the pest or weed control at 500 g/ha in assay [2] and in assay [1] was 100% each time. Besides, the pest or weed control at 20 ppm in assay [3] amounted to 100%.

`COc1ccc(Cl)c(S(=O)(=O)NC(=O)c2nc(-c3c(F)cccc3F)c(C)n2C)c1` [Example 307]: the pest or weed control at 20 ppm in assay [4] was 100%. In addition, in assay [1], the pest or weed control at 500 g/ha turned out to be 100%.

In the case of `Cc1c(-c2c(F)cccc2F)nc(C(=O)NS(=O)(=O)c2ccccc2Cl)n1C` [Example 308], the pest or weed control at 20 ppm in assay [4] was 90%. For the same molecule, the pest or weed control at 500 g/ha in assay [1] was 100%.

For `Cc1c(-c2c(F)cccc2F)nc(C(=O)NS(=O)(=O)c2ccccc2Br)n1C` [Example 309], the pest or weed control at 20 ppm in assay [4] is 100%. Further, in assay [1], the pest or weed control at 500 g/ha stood at 100%.

For `COc1ccc(Cl)c(S(=O)(=O)NC(=O)c2nc(-c3c(F)cccc3F)n(C)c2C)c1` [Example 334], the pest or weed control at 20 ppm in assay [4] amounted to 90%. Further, the pest or weed control at 500 g/ha in assay [1] worked out at 100%.

On to `CCc1ccc(CC)c(S(=O)(=O)NC(=O)c2cn(C)c(-c3c(F)cccc3F)n2)c1` [Example 340], for which, in assay [4], the pest or weed control at 20 ppm worked out at 90%. Further, in assay [1], the pest or weed control at 500 g/ha amounted to 100%.

Turning to `Cc1cccc(C(C)C)c1S(=O)(=O)NC(=O)c1cn(C)c(-c2c(F)cccc2F)n1` [Example 361], the pest or weed control at 20 ppm in assay [4] was determined as 90%. The pest or weed control at 500 g/ha in assay [1] worked out at 100%.

For the molecule `CCCc1cccc(C(F)(F)F)c1S(=O)(=O)NC(=O)c1cn(C)c(-c2c(F)cccc2F)n1` [Example 370], the pest or weed control at 500 g/ha in assay [2] turned out to be 90%; in assay [1], 100%. In addition, the pest or weed control at 20 ppm in assay [3] worked out at 100%.

`CCOc1ccc(Cl)c(S(=O)(=O)NC(=O)c2cn(C)c(-c3c(F)cccc3F)n2)c1` [Example 387]: the pest or weed control at 500 g/ha in assay [2] and in assay [1] was 100% throughout. Besides, the pest or weed control at 20 ppm in assay [3] amounted to 100%.

Take `COc1ccc(OC)c(S(=O)(=O)NC(=O)c2nc(-c3c(F)cccc3F)n(C)c2C)c1` [Example 413]: the figures for the pest or weed control at 500 g/ha in assay [2] and in assay [1] were 90% and 83%, respectively.

As for `Cn1cc(C(=O)NS(=O)(=O)c2c(Cl)cccc2Br)nc1-c1c(F)cccc1F` [Example 430], the pest or weed control at 500 g/ha in assay [2] and in assay [1] was 100% each time. Also, the pest or weed control at 20 ppm in assay [3] is 100%.

For `COc1ccc(C)c(S(=O)(=O)NC(=O)c2cn(C)c(-c3cccc(Cl)c3Cl)n2)c1` [Example 460], the pest or weed control at 500 g/ha came to 100% in assay [2] and 83% in assay [1].

For the molecule `CCc1ccc(Cl)cc1S(=O)(=O)NC(=O)c1cn(C)c(-c2cccc(Cl)c2Cl)n1` [Example 461], the pest or weed control at 500 g/ha in assay [2] and in assay [1] was 100% in each case. For the same molecule, the pest or weed control at 20 ppm in assay [3] amounted to 100%.

Turning to `Cn1cc(C(=O)NS(=O)(=O)c2ccccc2Cl)nc1-c1nccc2ccccc12` [Example 464], the pest or weed control at 500 g/ha in assay [2] and in assay [1] was 100% in each case. Further, the pest or weed control at 20 ppm in assay [3] stood at 90%.

Regarding `Cc1ccccc1S(=O)(=O)NC(=O)c1cn(C)c(-c2nccc3ccccc23)n1` [Example 465], the pest or weed control at 500 g/ha in assay [2] and in assay [1] was 100% in each case. Moreover, the pest or weed control at 20 ppm in assay [3] stood at 100%.

Regarding `Cn1cc(C(=O)NS(=O)(=O)c2c(Cl)cccc2Br)nc1-c1cccc(Cl)c1Cl` [Example 466], the figures for the pest or weed control at 500 g/ha in assay [2] and in assay [1] were 90% and 100%, respectively. The pest or weed control at 20 ppm in assay [3] is 100%.

In the case of `Cn1cc(C(=O)NS(=O)(=O)c2c(Cl)cccc2C(F)(F)F)nc1-c1cccc(Cl)c1Cl` [Example 467], the pest or weed control at 500 g/ha in assay [2] and in assay [1] was 100% throughout. Further, in assay [3], the pest or weed control at 20 ppm was determined as 100%.

For the molecule `CCc1ccccc1S(=O)(=O)NC(=O)c1cn(C)c(-c2nccc3ccccc23)n1` [Example 469], the figures for the pest or weed control at 500 g/ha in assay [2] and in assay [1] were 90% and 100%, respectively. Moreover, the pest or weed control at 20 ppm in assay [3] is 100%.

Consider `Cn1cc(C(=O)NS(=O)(=O)c2ccccc2Cl)nc1-c1cccc2ccccc12` [Example 479], for which the pest or weed control at 20 ppm in assay [4] stood at 90%. Moreover, the pest or weed control at 500 g/ha in assay [1] was 100%.

For the molecule `Cc1ccccc1S(=O)(=O)NC(=O)c1cn(C)c(-c2ncccc2Cl)n1` [Example 540], the pest or weed control at 500 g/ha in assay [2] and in assay [1] was 100% each time. The pest or weed control at 20 ppm in assay [3] turned out to be 100%.

Regarding `COc1ccc(Cl)c(S(=O)(=O)NC(=O)c2nc(-c3ccccc3Cl)n(C)c2Cl)c1` [Example 577], in assay [4], the pest or weed control at 20 ppm amounted to 100%. Further, the pest or weed control at 500 g/ha in assay [1] turned out to be 100%.

Turning to `COc1cc(S(=O)(=O)NC(=O)c2cn(C)c(-c3ncccc3F)n2)c(C)cc1Br` [Example 610], the pest or weed control at 500 g/ha in assay [2] and in assay [1] was 100% in each case. Moreover, the pest or weed control at 20 ppm in assay [3] came out at 100%.

Consider `COc1cc(S(=O)(=O)NC(=O)c2cn(C)c(-c3ncccc3Cl)n2)c(C)cc1Br` [Example 611], for which the results for the pest or weed control at 500 g/ha in assay [2] and in assay [1] were 90% and 100%, respectively. Also, in assay [3], the pest or weed control at 20 ppm stood at 100%.

For the origin of these results see patent publication US20200288710A1, “SUBSTITUTED SULPHONAMIDES FOR CONTROLLING ANIMAL PESTS” (BAYER CROPSCIENCE AKTIENGESELLSCHAFT, priority 2016, published 2020).
